From patent US9133228B2, “Guanidinyl-substituted polyamides useful for treating human papilloma virus” (Nanovir, LLC, priority 2011, dated 2015)

Legend:
Assay type in all cases: cell-based, Human papilloma virus
HPV18 = test: Inhibition of viral replication in cells that maintain HPV18 DNA, viral DNA quantified by real-time PCR; settings: cells maintaining HPV18 cultured 72 hours with polyamide; vs DMSO control; highest dose tested 10 μM
From the text: (§1) Table 1a lists a number of exemplary polyamides synthesized in accordance with the present invention. The HPLC/MW values given in Table 1b were obtained using low resolution high pressure liquid chromatography/mass spectrometry (LR HPLC/MS), which provides moderate precision masses of single isotopomers rather than average molecular weights or exact masses. Table 2 presents a summary of measured IC50 values of certain of these polyamides against HPV16, HPV18 and HPV31. The IC50 is the concentration of compound required for 50% inhibition of viral replication in vitro. The polyamides were tested in cells that maintain HPV16, HPV18 or HPV31 DNA. Cells maintaining the selected HPV were cultured for 72 hours in the presence of the polyamide. Viral DNA was then quantified using real-time PCR and compared to vehicle (DMSO)-treated control cultures. […] Table 3 presents a summary of measured IC50 and IC90 values of certain of these polyamides against HPV16, HPV18 and HPV31.

HPV16 = test: Inhibition of viral replication in cells that maintain HPV16 DNA, viral DNA quantified by real-time PCR; settings: cells maintaining HPV16 cultured 72 hours with polyamide; vs DMSO control; highest dose tested 10 μM
From the text: as §1

HPV31 = test: Inhibition of viral replication in cells that maintain HPV31 DNA, viral DNA quantified by real-time PCR; settings: cells maintaining HPV31 cultured 72 hours with polyamide; vs DMSO control; highest dose tested 10 μM
From the text: as §1

SMILES	IC50 (HPV18) [nM]	IC50 (HPV16) [nM]	IC50 (HPV31) [nM]
CN(CCCN)CCCNC(=O)CCNC(=O)c1cc(NC(=O)c2cc(NC(=O)c3cc(NC(=O)CCNC(=O)c4cc(NC(=O)c5cc(NC(=O)c6cc(NC(=O)CCCNC(=O)c7cc(NC(=O)c8cc(NC(=O)CCNC(=O)c9nc(NC(=O)c%10cc(N=C(N(C)C)N(C)C)cn%10C)cn9C)cn8C)cn7C)cn6C)cn5C)cn4C)cn3C)cn2C)cn1C [NV1094, TMG-PyImβPyPy-γ-PyPyPyβPyPyPyβ-Ta•4TFA]	> 10000	> 10000	> 10000
CN(CCCN)CCCNC(=O)CCNC(=O)c1cc(NC(=O)c2cc(NC(=O)c3cc(NC(=O)c4cc(NC(=O)CCNC(=O)c5cc(NC(=O)c6cc(NC(=O)CCCNC(=O)c7cc(NC(=O)c8cc(NC(=O)c9cc(NC(=O)CCNC(=O)c%10cc(NC(=O)c%11cc(N=C(N(C)C)N(C)C)cn%11C)cn%10C)cn9C)cn8C)cn7C)cn6C)cn5C)cn4C)cn3C)cn2C)cn1C [NV1084, TMG-PyPyβPyPyPy-γ-PyPyβPyPyPyPyβ-Ta•3TFA]	1040	1910	7320
CN(CCCN)CCCNC(=O)c1cc(NC(=O)c2cc(NC(=O)CCNC(=O)c3cc(NC(=O)c4cc(NC(=O)c5cc(NC(=O)CCNC(=O)c6cc(NC(=O)c7cc(NC(=O)CCNC(=O)c8cc(NC(=O)[C@H](N)CCNC(=O)c9nc(NC(=O)c%10cc(NC(=O)CCNC(=O)c%11cc(NC(=O)c%12cc(NC(=O)CCNC(=O)c%13cc(NC(=O)c%14cc(N=C(N(C)C)N(C)C)cn%14C)cn%13C)cn%12C)cn%11C)cn%10C)cn9C)cn8C)cn7C)cn6C)cn5C)cn4C)cn3C)cn2C)cn1C [NV1071, TMG-PyPyβPyPyβPyIm-γNH2-PyβPyPyβPyPyPyβPyPy-Ta•5TFA]	93	255	95

Now those with a lower IC50 (HPV18), led by results:

IC50 (HPV18) [nM]	IC50 (HPV16) [nM]	IC50 (HPV31) [nM]	SMILES
41	178	52	CN(CCCN)CCCNC(=O)CCNC(=O)c1cc(NC(=O)CCNC(=O)c2cc(NC(=O)c3cc(NC(=O)c4cc(NC(=O)CCNC(=O)c5cc(NC(=O)c6cc(NC(=O)c7cc(NC(=O)[C@@H](CCNC(=O)c8cc(NC(=O)CCNC(=O)c9cc(NC(=O)c%10cc(NC(=O)CCNC(=O)c%11cc(NC(=O)c%12cc(NC(=O)c%13cc(N=C(N(C)C)N(C)C)cn%13C)cn%12C)cn%11C)cn%10C)cn9C)cn8C)NC(=O)NCCCN(C)CCCN)cn7C)cn6C)cn5C)cn4C)cn3C)cn2C)cn1C [NV1074, TMG-PyPyPyβPyPyβPy-γNHR′-PyPyPyβPyPyPyβPyβ-Ta•5TFA]
35	20	14	CN(C)CCCNC(=O)CCNC(=O)c1cc(NC(=O)CCNC(=O)c2cc(NC(=O)c3cc(NC(=O)c4cc(NC(=O)CCNC(=O)c5cc(NC(=O)c6cc(NC(=O)CCNC(=O)c7cc(NC(=O)CCCNC(=O)c8nc(NC(=O)c9cc(NC(=O)CCNC(=O)c%10cc(NC(=O)c%11cc(NC(=O)CCNC(=O)c%12cc(NC(=O)c%13cc(NC(=O)c%14cc(N=C(N(C)C)N(C)C)cn%14C)cn%13C)cn%12C)cn%11C)cn%10C)cn9C)cn8C)cn7C)cn6C)cn5C)cn4C)cn3C)cn2C)cn1C [NV1088, TMG-PyPyPyβPyPyβPyIm-γ-PyβPyPyβPyPyPyβPyβ-Dp•3TFA]
35	53	47	CN(C)CCCNC(=O)CCNC(=O)c1cc(NC(=O)c2cc(NC(=O)c3cc(NC(=O)CCNC(=O)c4cc(NC(=O)c5cc(NC(=O)c6cc(NC(=O)CCNC(=O)c7cc(NC(=O)c8cc(NC(=O)CCCNC(=O)c9cc(NC(=O)c%10cc(NC(=O)CCNC(=O)c%11nc(NC(=O)c%12cc(NC(=O)c%13cc(NC(=O)CCNC(=O)c%14cc(N=C(N(C)C)N(C)C)cn%14C)cn%13C)cn%12C)cn%11C)cn%10C)cn9C)cn8C)cn7C)cn6C)cn5C)cn4C)cn3C)cn2C)cn1C [NV1080, TMG-PyβPyPyImβPyPy-γ-PyPyβPyPyPyβPyPyPyβ-Dp•3TFA]
